Measurements: article PMC3303948 (Steroids, 2012)
Several values for one entry are separate records, joined by “and”; a condition that tells them apart may be missing. Equal values may be shown once. Each block holds one compound with its values, some of them ahead of it.

Assays:
[1] = 0.5 µg/kg once weekly; oncology setting; cited from earlier work
Tumor = format: in vivo, nu/nu mice
CYP24 mRNA [2] = experiment: CYP24 mRNA expression in H292 cells in vitro
[3] = Plasma pharmacokinetics of 1,25; format: in vivo, nu/nu mice
CYP24 mRNA [4] = experiment: CYP24 mRNA expression in H292 xenografts in vivo
[5] = Compartmental analysis of plasma and tumor 1,25
CYP24 [6] = details: in vitro; 50 nM CTA091; ref Zhang et al., manuscript under review; cited from earlier work
CYP27B1 mRNA = CYP27B1 mRNA expression in H292 cells in vitro; format: cell-based, human; details: data not shown
[7] = ref personal communication, M. Petkovich; cited from earlier work
CYP24 [8] = details: cited from earlier work
[9] = female, nu/nu, mouse, tumor (H292 xenograft), ip, 20 ug/kg
[10] = female, nu/nu, mouse, plasma, ip, 20 ug/kg
[11] = compartmental model, tumor volume fixed at 1 L/kg
[12] = 250 µg/kg CTA091 i.p. with 20 µg/kg 1,25(OH)2D3 versus 1,25(OH)2D3 alone
[13] = rats, a similar dose (to 250 µg/kg)
[14] = compartmental model, 250 µg/kg CTA091

SMILES: C=C1/C(=C\C=C2/CCC[C@]3(C)[C@@H]([C@H](C)CCCC(C)(C)O)CC[C@@H]23)C[C@@H](O)C[C@@H]1O [1,25(OH)2D3, 1,25-dihydroxyvitamin D3]
Safety of high-dose 1,25(OH)2D3 [1]: safely delivered
Maximum tumor concentration of 1,25(OH)2D3 (Tumor; H292 tumor, 20 µg/kg 1,25(OH)2D3 i.p.): 1.70 ng/mL
Tumor Cmax of 1,25(OH)2D3 (Tumor; H292 tumor, 20 µg/kg 1,25(OH)2D3 i.p. alone or with 250 µg/kg CTA091): 1.7 ng/g and 1.70 ng/g
Tmax (Tumor; [9]): 2 h
half-life (Tumor; [9]): 1.95 h
k el (Tumor; [9]): 9.86e-05 s⁻¹
Peak tumor concentration of 1,25(OH)2D3 (molar) (Tumor; given that 1 g of tumor has a volume of 1 mL, without or with CTA091): 3.8 nM
Induction of CYP24 expression in H292 cells in vitro (CYP24 mRNA [2]; 1 nM 1,25(OH)2D3 (Fig. 1A)): induced to express CYP24
AUC(0-inf) [3, 10]: 69.1 ng·h/mL
AUC(0-t) [3, 10]: 67.4 ng·h/mL
CL/F [3, 10]: 4.82 mL/min/kg
Cmax [3, 10]: 21.6 ng/mL
Tmax [3, 10]: 0.25 h
Vd/F [3, 10]: 0.592 L/kg
half-life [3, 10]: 1.42 h
k el [3, 10]: 0.000136 s⁻¹
Tmax ([3]; female, nu/nu, mouse, plasma, ip, 20 µg/kg): 0.25 to 0.5 h
Increase in tumor CYP24 mRNA levels (CYP24 mRNA [4]; single dose of 1,25(OH)2D3, 4 h post-treatment): approximately 4 fold
Increase in tumor CYP24 mRNA levels (CYP24 mRNA [4]; single dose of 1,25(OH)2D3, after 8 h): ~15 fold
kct, transfer rate constant from the central to the tumor compartment, Estimate (%SE) [5, 11]: 0.454 (18) h^−1
ktc, transfer rate constant from the tumor to the central compartment, Estimate (%SE) [5, 11]: 1.24 (22) h^−1
CL/F [5, 10]: 4.85 mL/min/kg
Vd/F [5, 10]: 0.653 L/kg
half-life [5, 10]: 1.56 h
k el [5, 10]: 0.000124 s⁻¹
k el ([5]; female, nu/nu, mouse, tumor (H292 xenograft), intraperitoneal, 20 µg/kg): 0.000292 s⁻¹
half-life [5, 9]: 0.661 h
k el [5, 9]: 0.000289 s⁻¹

+/− CTA091 Ratio, tumor/plasma AUC0–h of 1,25(OH)2D3 (Tumor; [12]): 1.8
+/− CTA091 Ratio, tumor/plasma Cmax of 1,25(OH)2D3 (Tumor; [12]): 1.7
Increase in 1,25(OH)2D3 tumor levels by co-administered CTA091 (Tumor; 250 µg/kg CTA091 with 20 µg/kg 1,25(OH)2D3 i.p., H292 tumor): 2.6 fold
+/− CTA091 Ratio, plasma AUC0-inf of 1,25(OH)2D3 [3, 12]: 1.5
+/− CTA091 Ratio, plasma AUC0–8h of 1,25(OH)2D3 [3, 12]: 1.4
+/− CTA091 Ratio, plasma Cl/F of 1,25(OH)2D3 [3, 12]: 0.68
+/− CTA091 Ratio, plasma Cmax of 1,25(OH)2D3 [3, 12]: 1.6
+/− CTA091 Ratio, plasma Kel of 1,25(OH)2D3 [3, 12]: 0.86
+/− CTA091 Ratio, plasma Tmax of 1,25(OH)2D3 [3, 12]: 2
+/− CTA091 Ratio, plasma Vd/F of 1,25(OH)2D3 [3, 12]: 0.79
+/− CTA091 Ratio, plasma t1/2 of 1,25(OH)2D3 [3, 12]: 1.2
Increase in 1,25(OH)2D3 plasma levels (Cmax) by co-administered CTA091 ([3]; 250 µg/kg CTA091 with 20 µg/kg 1,25(OH)2D3 i.p.): 1.6 fold
Increase in 1,25(OH)2D3 plasma terminal half-life by CTA091 ([3]; 250 µg/kg CTA091 with 20 µg/kg 1,25(OH)2D3 i.p., non-compartmental): approximately 1.2 fold
Decrease in plasma clearance of 1,25(OH)2D3 by CTA091 [5, 14]: 20%
Decrease in tumor clearance of 1,25(OH)2D3 by CTA091 [5, 14]: 46%
ktc/(ktc+ ktumor elim) ([5]; compartmental model, tumor clearance with versus without CTA091): 0.54
SMILES: C=C1/C(=C\C=C2/CCC[C@]3(C)[C@@H]([C@H](C)CCS(=N)(=O)c4ccccc4)CC[C@@H]23)C[C@@H](O)C[C@@H]1O (stereo partly drawn) [CTA091]
Effect on 1,25(OH)2D3-mediated transcription (CYP24 [6]): significantly increases 1,25(OH)2D3-mediated transcription
Inhibition of 1,25(OH)2D3 catabolism (CYP24 [6]): consistently and maximally inhibits 1,25(OH)2D3 catabolism
Effect on CYP27B1 mRNA expression (CYP27B1 mRNA): no effect
Increase of the transcriptional induction of CYP24 by 1,25(OH)2D3 (CYP24 mRNA [2]; H292 cells, CTA091 with 1,25(OH)2D3, data not shown): approximately 4 fold
Effect of CTA091 alone on CYP24 gene expression (CYP24 mRNA [2]; H292 cells, data not shown): no effect
Plasma clearance of CTA091 relative to 1,25(OH)2D3 [7]: cleared from plasma more rapidly than 1,25(OH)2D3
Increase in rat serum 1,25(OH)2D3 Cmax (CYP24 [8]; rat, 500 µg/kg CTA091): 1.5 fold
Increase in rat serum 1,25(OH)2D3 exposure (CYP24 [8]; rat, 500 µg/kg CTA091): 1.4 fold
Effect on endogenous 1,25(OH)2D3 levels (CYP24 [8]; [13]): increased endogenous 1,25(OH)2D3 levels
Effect on serum PTH levels (CYP24 [8]; [13]): decreased serum PTH levels
